Publication PMC6721227, “Insight into the PTP1B Inhibitory Activity of Arylbenzofurans: An In Vitro and In Silico Study” (Molecules, 2019)
“Also recorded” adds a separate entry of the source.

Legend:
PTP1B = tested on: PTP1B; design: method as in PMID 15258570; conditions: allosteric inhibitor of PTP1B; cited from earlier work
[1] = molecular target: T1, Protein tyrosine phosphatase 1B (PTP1B, human recombinant) (Homo sapiens, UniProt P18031); experiment: PTP1B inhibitory assay (inhibition of pNPP hydrolysis catalyzed by PTP1B); type: biochemical
T1 construct: purchased Biomol International LP (Plymouth Meeting, PA, USA)
T1 sequence (P18031 1-435): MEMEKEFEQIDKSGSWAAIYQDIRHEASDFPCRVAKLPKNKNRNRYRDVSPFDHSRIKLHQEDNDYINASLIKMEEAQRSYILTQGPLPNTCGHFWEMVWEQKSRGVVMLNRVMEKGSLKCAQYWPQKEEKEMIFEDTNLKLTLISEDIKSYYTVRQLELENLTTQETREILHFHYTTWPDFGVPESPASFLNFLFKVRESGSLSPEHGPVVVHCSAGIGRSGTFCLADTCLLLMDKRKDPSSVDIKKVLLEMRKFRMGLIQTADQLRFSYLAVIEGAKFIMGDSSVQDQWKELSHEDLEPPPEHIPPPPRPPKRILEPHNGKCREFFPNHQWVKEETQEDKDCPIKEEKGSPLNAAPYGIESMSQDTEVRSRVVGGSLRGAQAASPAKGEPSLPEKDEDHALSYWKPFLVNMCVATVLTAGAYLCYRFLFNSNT
Text: (§1) Ethylenediaminetetraacetic acid, p-nitrophenyl phosphate (pNPP), and dimethylsulfoxide were purchased from Sigma-Aldrich Co. (St. Louis, MO, USA). Protein tyrosine phosphatase 1B (PTP1B, human recombinant) and dithiothreitol (DTT) were purchased from Biomol® International LP (Plymouth Meeting, PA, USA) and Bio-Rad Laboratories (Hercules, CA, USA), respectively. All chemicals and solvents used in the isolation and enzyme assays were of reagent grade and were purchased from commercial sources. TLC were performed on a precoated Merck Kiesel gel 60 F254 plates (20 × 20 cm, 0.25 mm) and RP-18 F254S plates (5 × 10 cm) (Merck, Darmstadt, Germany).
Inhibition of pNPP hydrolysis catalyzed by PTP1B was carried out by the method as described but with slight modification.

[2] = molecular target: T1, Protein tyrosine phosphatase 1B (PTP1B, human recombinant); experiment: Enzyme kinetic analysis (Lineweaver-Burk and Dixon plots); type: biochemical; conditions: for Ki: determined by Dixon plot; for Inhibition Type: determined by Lineweaver-Burk plot
Text: Here, we employed Lineweaver-Burk and Dixon plots to determine the inhibition type and inhibition constant (Ki value) for each compound (Figure 2, Table 1).
as §1
The kinetic parameters were determined using Lineweaver-Burk double-reciprocal plots and the Dixon plot method at increasing substrate and compound concentrations. All measurements were measured in triplicate, and Sigma Plot 12.0 (SPCC Inc., Chicago, IL, USA) was used to calculate the experimental parameters.

For CC(C)=CCC/C(C)=C/CC/C(C)=C\Cc1c(O)cc(O)c(CC=C(C)C)c1-c1cc2ccc(O)cc2o1 [MB, morusalfuran B], the IC50 [1] was 12 ± 0.75 µM, the Ki [2] was 2.84 µM and the “Inhibition Type” value [2] was “mixed-type inhibition; also recorded: mixed type inhibitor”.

For CC(C)=CCCC1(C)C=Cc2c(ccc3cc(-c4cc(O)cc(O)c4CC=C(C)C)oc23)O1 (centres unmarked) [MD2, mulberrofuran D2], the IC50 [1] was 3.11 ± 0.1 µM, the “times more potent than compound A” value ([1]; MD2 vs compound A, PTP1B inhibition) was 7 times and the Ki [2] was 2.63 µM. The “Inhibition Type” value [2] was “non-competitive inhibition; also recorded: non-competitive inhibitor; also recorded: Noncompetitive”.

In the case of CC(C)=CCC/C(C)=C/Cc1c(O)ccc2cc(-c3cc(O)cc(O)c3CC=C(C)C)oc12 [MD, mulberrofuran D], the IC50 [1] is reported as 11.6 ± 0.19 µM, the Ki [2] is reported as 4.79 µM and the “Inhibition Type” value [2] is reported as “mixed-type inhibition; also recorded: mixed type inhibitor”.

With C[C@@]12C=C(c3c(O)cc(-c4cc5ccc(O)cc5o4)cc3O)C[C@@H](C1)c1ccc(O)cc1O2 [MH, mulberrofuran H] the IC50 [1] was 53.5 ± 12.5 µM.

For COc1cc(O)cc(-c2cc3ccc(O)c(C/C=C(\C)CCC=C(C)C)c3o2)c1CC=C(C)C [SA, sanggenofuran A], the IC50 [1] was 31.9 ± 2.98 µM and the “reduction of activity (SA vs. MD)” value ([1]; replacement of C3′-OH with -OCH3, SA vs. MD) was over 3 times.
